# Measured values reported in patent US6407112B1, “Optically active tetrahydrobenzindole derivative” (Meiji Seika Kaisha, Ltd., priority 1998, dated 2002).
# Read-outs that look alike come from different tables or passages of the source.
# Assays:
# [1] = target: T1, cloned human 5-HT7 receptor (Homo sapiens, UniProt P34969); test: 5-HT7 receptor-binding assay ([3H]-5CT); conditions: for Selectivity (ratio of Ki (5-HT2) with Ki (5-HT7)): Ki (5-HT2, rat cortex) / Ki (5-HT7, cloned human)
# T1 construct: expressed in transfected cells
# Description: 5-HT7 Receptor-binding Assay
# Membranes from culture cells expressing cloned human 5-HT7 receptor were harvested and homogenized in 50 mM Tris-HCl assay buffer (pH 7.4) containing 10 mM MgCl2 and 0.5 mM EDTA with a potter-type homogenizer, and the suspension was centrifuged at 4° C., 39,000×g for 20 minutes. The resulting pellet was resuspended in the assay buffer at a proportion of 1 ml per an amount of a piece of culture petri dish having a diameter of 10 cm, and homogenized again.
# The incubation was terminated by rapid filtration through GB/B filter, washed with 6 ml of ice-cold 50 mM Tris-HCl buffer (pH 7.4). The bound radioactivity was determined by liquid scintillation counter. While, non-specific binding was determined in the presence of 10 μM metergoline. The specific binding was calculated from the bound radioactivity after subtraction of non-specific binding.
# [2] = target: T2, 5-HT2 receptor (rat cerebral cortex P2 fraction) (Rattus norvegicus, UniProt P14842); test: 5-HT2 receptor-binding assay ([3H]ketanserin)
# T2 construct: Rat cerebral cortex was homogenized in 10 volumes of 0.32 M sucrose solution; from tissue; host or cells: rat cerebral cortex, P2 membrane fraction
# Description: 5-HT2 Receptor-binding Assay
# Rat cerebral cortex was homogenized in 10 volumes of 0.32 M sucrose solution. The supernatant obtained by centrifuging at 900×g for 10 minutes was further centrifuged at 11,500×g for 20 minutes. The pellet was resuspended in 50 mM Tris-HCl buffer (pH 7.4) and then centrifuged at 39,900×g for 20 minutes. The final pellet was used a P2 fraction.
# P2 fraction was incubated in 50 mM tris-HCl buffer (pH 7.4) containing 1 nM [^3H]ketanserin and the compound of the present invention at 37° C. for 15 minutes and terminated by rapid filtration through GF/B filters. The bound radioactivity was determined by liquid scintillation counter. While, non-specific binding was determined in the presence of 10 μM ketanserin. Thus, the specific binding was calculated from the bound radioactivity after the subtraction of non-specific binding.
# [3] = rat cerebral cortex P2 fraction, 1 nM [3H]ketanserin, 37° C., 15 minutes, Ki calculated from IC50, read-out: Receptor Binding Affinity Ki Value (5-HT2)
# [4] = membranes of cultured cells expressing cloned human 5-HT7 receptor, 1 nM [3H]-5CT, 37° C., 30 minutes, Ki calculated from IC50, read-out: Receptor Binding Affinity Ki Value (5-HT7)
# T1 sequence (P34969 whole entry): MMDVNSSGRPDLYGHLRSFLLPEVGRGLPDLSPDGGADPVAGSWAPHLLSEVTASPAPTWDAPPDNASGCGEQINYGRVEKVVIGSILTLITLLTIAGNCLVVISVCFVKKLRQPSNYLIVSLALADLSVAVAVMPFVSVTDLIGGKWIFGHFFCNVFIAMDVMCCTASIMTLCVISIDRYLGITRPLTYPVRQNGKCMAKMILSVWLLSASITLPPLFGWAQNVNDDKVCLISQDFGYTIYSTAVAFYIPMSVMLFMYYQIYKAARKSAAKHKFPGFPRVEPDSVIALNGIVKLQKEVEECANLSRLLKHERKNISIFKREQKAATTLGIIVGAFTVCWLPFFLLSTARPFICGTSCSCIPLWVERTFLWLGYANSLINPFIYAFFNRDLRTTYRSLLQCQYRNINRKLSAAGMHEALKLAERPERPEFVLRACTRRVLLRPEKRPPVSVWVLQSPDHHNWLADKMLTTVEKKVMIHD
# T2 sequence (P14842 whole entry): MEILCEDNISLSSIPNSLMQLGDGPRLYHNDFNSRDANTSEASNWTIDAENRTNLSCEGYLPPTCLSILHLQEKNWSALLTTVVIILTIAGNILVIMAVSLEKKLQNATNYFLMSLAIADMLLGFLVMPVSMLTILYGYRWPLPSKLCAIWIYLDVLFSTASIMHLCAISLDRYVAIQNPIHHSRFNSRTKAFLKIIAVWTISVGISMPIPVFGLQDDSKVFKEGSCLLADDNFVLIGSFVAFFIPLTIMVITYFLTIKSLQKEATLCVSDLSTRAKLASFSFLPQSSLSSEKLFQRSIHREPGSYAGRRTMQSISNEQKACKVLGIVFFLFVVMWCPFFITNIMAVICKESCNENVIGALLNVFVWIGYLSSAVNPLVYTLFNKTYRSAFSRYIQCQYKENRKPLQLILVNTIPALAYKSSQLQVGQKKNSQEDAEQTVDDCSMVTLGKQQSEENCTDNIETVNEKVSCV
SMILES,Selectivity (ratio of Ki (5-HT2) with Ki (5-HT7)) [1],"Ki [2, 3] [nM]",Ki [1] [nM],Ki [2] [nM],"Ki [1, 4] [nM]"
"COc1ccccc1N1CCN(CCCCC23CCCc4cccc(c42)NC3=O)CC1 (racemic) [Racemic Mixture of Synthesis Example 14, reference compound]",7,60,–,–,–
"O=C1Nc2cccc3c2C1(CCCCN1CC=C(c2ccccc2)CC1)CCC3 (racemic) [Racemic Mixture of Synthesis Example 15, reference compound]",10,–,9,92,–
"CN(C)C(=O)n1c2c(c3ccccc31)CCN(CCCCC13CCCc4cccc(c41)NC3=O)C2 (racemic) [Racemic Mixture of Synthesis Example 17, reference compound]",121,970,–,–,8
"O=C1Nc2cccc3c2C1(CCCCN1CCc2ccccc2C1)CCC3 (racemic) [Racemic Mixture of Synthesis Example 18, reference compound]",79,628,–,–,8
"CNC(=O)Cn1c2c(c3ccccc31)CCN(CCCCC13CCCc4cccc(c41)NC3=O)C2 (racemic) [Racemic Mixture of Synthesis Example 22, reference compound]",>278,> 1000,–,–,3.6
"COc1ccccc1N1CCN(CCCC[C@@]23CCCc4cccc(c42)NC3=O)CC1 [Synthesis Example 14, (S)-2a-(4-(4-(2-methoxyphenyl)piperazinyl)butyl)-2a,3,4,5-tetrahydro-1H-benz[cd]indol-2-one]",49,84,–,–,1.7
"O=C1Nc2cccc3c2[C@@]1(CCCCN1CC=C(c2ccccc2)CC1)CCC3 [Synthesis Example 15, (S)-2a-(4-(4-phenyl-1,2,3,6-tetrahydropyridin)-1-ylbutyl)-2a,3,4,5-tetrahydro-1H-benz[cd]indol-2-one]",32,–,1.3,42,–
"CN(C)C(=O)n1c2c(c3ccccc31)CCN(CCCC[C@@]13CCCc4cccc(c41)NC3=O)C2 [Synthesis Example 17, (S)-2a-[4-(9-dimethylcarbamoyl-2,3,4,9-tetrahydro-1H-pyrido[3,4-b]indol-2-yl)-butyl]-2a,3,4,5-tetrahydro-1H-benz[cd]indol-2-one]",>250,> 1000,–,–,4
"O=C1Nc2cccc3c2[C@@]1(CCCCN1CCc2ccccc2C1)CCC3 [Synthesis Example 18, (S)-2a-(4-(1,2,3,4-tetrahydroisoquinolin-2-yl)-butyl)-2a,3,4,5-tetrahydro-1H-benz[cd]indol-2-one]",>125,> 1000,–,–,7.7
"CNC(=O)Cn1c2c(c3ccccc31)CCN(CCCC[C@@]13CCCc4cccc(c41)NC3=O)C2 [Synthesis Example 22, (S)-2a-(4-(9-methylcarbamoylmethyl-2,3,4,9-tetrahydro-1H-pyrido[3,4-b]indol-2-yl)butyl)-2a,3,4,5-tetrahydro-1H-benz[cd]indol-2-one]",>667,> 1000,–,–,1.5
